Measurements reported in publication PMC10018501 (ACS Omega, 2023).
Where “and” joins values, the source holds several entries; their conditions need not be identical. Identical values can stand only once.

Columns and labels:
[1] = system: acetylcholine (ACh); assay: Ex vivo ACh estimation; type: in vivo, rat; settings: scopolamine-treated rats; SD-6 2.5, 5, 10 mg/kg
[2] = target: PAS-AChE (hAChE-PAS region) (Homo sapiens, UniProt P22303); assay: Propidium iodide displacement assay; type: binding
[3] = target: Aβ1–42 with hAChE (Homo sapiens, UniProt P22303); assay: hAChE-induced Aβ aggregation inhibition thioflavin T assay; type: biochemical; settings: compound 5, 10 and 20 μM; Aβ 10 μM
[4] = system: differentiated SH-SY5Y cells; assay: Neurotoxicity estimation; type: cell-based; settings: 10, 20, 40 and 80 μM, 24 h
[5] = system: nondifferentiated SH-SY5Y cells; assay: Neuroprotective estimation; type: cell-based; settings: Homo sapiens, 24 h, read-out: cell viability
[6] = system: malonaldehyde (MDA); assay: Ex vivo MDA estimation; type: in vivo, rat; settings: scopolamine-treated rats; SD-6 2.5, 5, 10 mg/kg; donepezil 5 mg/kg
[7] = target: T1, hAChE (Homo sapiens, UniProt P22303); assay: In vitro hAChE inhibition assay; type: biochemical
[8] = target: hBChE (Equus caballus, UniProt P81908); assay: In vitro hBChE inhibition assay; type: biochemical, human
[9] = system: catalase; assay: Ex vivo catalase assay; type: in vivo, rat; settings: scopolamine-treated rats; SD-6 2.5, 5, 10 mg/kg; donepezil 5 mg/kg
[10] = n = 3, mean ± SEM
[11] = system: scopolamine-induced rat model; assay: Scopolamine-induced Y-maze test; type: in vivo, Wistar rats; settings: SD-6 2.5, 5, 10 mg/kg p.o.; donepezil 5 mg/kg p.o.; 7 days; vs scopolamine group
[12] = system: AChE; assay: Ex vivo AChE estimation in hippocampal homogenate; set-up: species or system rat; settings: scopolamine-treated rats; SD-6 2.5, 5, 10 mg/kg
[13] = target: Aβ1–42 (Homo sapiens, UniProt P05067); assay: Self-induced Aβ aggregation inhibition thioflavin T assay; type: biochemical; settings: compound 5, 10 and 20 μM; Aβ 10 μM
[14] = system: hippocampal brain (dentate gyrus) neurons; assay: Brain tissue histopathology; type: in vivo, rat; settings: Aβ1–42 rats, SD-6 10 mg/kg, donepezil 5 mg/kg
[15] = target: hBACE-1 (Homo sapiens, UniProt P56817); assay: biochemical; settings: IC50 ± SEM hBACE-1, n = 3
[16] = system: glutathione (GSH); assay: Ex vivo reduced glutathione; type: in vivo, rat; settings: scopolamine-treated rats; SD-6 2.5, 5, 10 mg/kg; donepezil 5 mg/kg
[17] = in vitro; settings: PAMPA, pH 7.4
[18] = system: female Wistar rats; assay: Acute oral toxicity study; type: in vivo
[19] = system: superoxide dismutase (SOD); assay: Ex vivo SOD assay; type: in vivo, rat; settings: scopolamine-treated rats; SD-6 2.5, 5, 10 mg/kg; donepezil 5 mg/kg
[20] = target: T1, hAChE; assay: hAChE enzyme kinetics; type: biochemical; settings: substrate ATCI
[21] = system: ICV Aβ1–42-induced rat model; assay: Aβ-induced Morris water maze test; settings: SD-6 10 mg/kg, donepezil 5 mg/kg, orally 9 days; vs Aβ group

T1 sequence (P22303 32-617 isoform P22303-2 limits assumed): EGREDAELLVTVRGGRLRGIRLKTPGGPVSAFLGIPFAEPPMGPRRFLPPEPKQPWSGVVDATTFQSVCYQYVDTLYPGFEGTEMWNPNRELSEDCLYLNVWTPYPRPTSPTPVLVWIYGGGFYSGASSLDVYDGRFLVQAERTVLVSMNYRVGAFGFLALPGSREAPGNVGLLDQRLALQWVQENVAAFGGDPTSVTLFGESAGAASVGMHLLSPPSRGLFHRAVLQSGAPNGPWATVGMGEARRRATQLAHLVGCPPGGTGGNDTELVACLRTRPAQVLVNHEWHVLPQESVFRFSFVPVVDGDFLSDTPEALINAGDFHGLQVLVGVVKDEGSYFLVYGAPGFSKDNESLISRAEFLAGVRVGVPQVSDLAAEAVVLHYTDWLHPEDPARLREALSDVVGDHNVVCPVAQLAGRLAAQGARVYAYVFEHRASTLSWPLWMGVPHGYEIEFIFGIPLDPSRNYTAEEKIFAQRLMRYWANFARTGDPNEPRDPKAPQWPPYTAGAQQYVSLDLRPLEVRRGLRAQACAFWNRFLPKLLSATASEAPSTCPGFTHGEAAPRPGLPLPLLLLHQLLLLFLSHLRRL
Chain of PAS-AChE (hAChE-PAS region) (P22303 32-617 isoform P22303-2 limits assumed): as above
Chain of Aβ1–42 (P05067 672-713): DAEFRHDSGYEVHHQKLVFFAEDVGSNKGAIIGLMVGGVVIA
Chain of hBChE (P81908 whole entry): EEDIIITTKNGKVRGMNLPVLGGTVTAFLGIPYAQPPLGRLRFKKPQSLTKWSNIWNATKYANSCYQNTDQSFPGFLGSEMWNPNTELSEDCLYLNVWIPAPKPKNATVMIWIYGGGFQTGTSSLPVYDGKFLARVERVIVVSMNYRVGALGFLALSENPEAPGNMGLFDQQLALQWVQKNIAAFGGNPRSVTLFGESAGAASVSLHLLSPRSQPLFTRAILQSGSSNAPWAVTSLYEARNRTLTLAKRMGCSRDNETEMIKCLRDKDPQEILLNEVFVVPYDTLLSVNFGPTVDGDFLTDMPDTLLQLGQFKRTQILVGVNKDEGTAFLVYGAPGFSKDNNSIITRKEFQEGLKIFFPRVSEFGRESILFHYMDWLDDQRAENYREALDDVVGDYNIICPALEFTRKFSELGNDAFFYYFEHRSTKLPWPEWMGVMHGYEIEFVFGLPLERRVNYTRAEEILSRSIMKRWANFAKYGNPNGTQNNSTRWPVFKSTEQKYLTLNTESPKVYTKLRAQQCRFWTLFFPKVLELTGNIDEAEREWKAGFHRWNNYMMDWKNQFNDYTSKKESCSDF
Chain of Aβ1–42 with hAChE (P22303 32-588 isoform P22303-2): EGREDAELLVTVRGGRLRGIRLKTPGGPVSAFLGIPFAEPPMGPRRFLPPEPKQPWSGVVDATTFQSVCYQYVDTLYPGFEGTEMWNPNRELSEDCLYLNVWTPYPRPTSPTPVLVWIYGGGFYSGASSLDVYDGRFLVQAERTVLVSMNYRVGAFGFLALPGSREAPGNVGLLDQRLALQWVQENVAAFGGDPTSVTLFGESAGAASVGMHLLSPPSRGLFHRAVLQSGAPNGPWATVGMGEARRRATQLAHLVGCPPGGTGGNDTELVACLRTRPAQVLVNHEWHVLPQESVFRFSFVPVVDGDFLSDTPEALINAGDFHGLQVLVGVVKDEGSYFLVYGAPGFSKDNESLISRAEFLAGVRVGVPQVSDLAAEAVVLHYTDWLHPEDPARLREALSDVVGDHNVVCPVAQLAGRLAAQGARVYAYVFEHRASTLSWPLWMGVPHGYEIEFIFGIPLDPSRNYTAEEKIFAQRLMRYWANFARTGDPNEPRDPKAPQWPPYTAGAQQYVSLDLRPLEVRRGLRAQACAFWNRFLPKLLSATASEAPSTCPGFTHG
Chain of hBACE-1 (P56817 46-501): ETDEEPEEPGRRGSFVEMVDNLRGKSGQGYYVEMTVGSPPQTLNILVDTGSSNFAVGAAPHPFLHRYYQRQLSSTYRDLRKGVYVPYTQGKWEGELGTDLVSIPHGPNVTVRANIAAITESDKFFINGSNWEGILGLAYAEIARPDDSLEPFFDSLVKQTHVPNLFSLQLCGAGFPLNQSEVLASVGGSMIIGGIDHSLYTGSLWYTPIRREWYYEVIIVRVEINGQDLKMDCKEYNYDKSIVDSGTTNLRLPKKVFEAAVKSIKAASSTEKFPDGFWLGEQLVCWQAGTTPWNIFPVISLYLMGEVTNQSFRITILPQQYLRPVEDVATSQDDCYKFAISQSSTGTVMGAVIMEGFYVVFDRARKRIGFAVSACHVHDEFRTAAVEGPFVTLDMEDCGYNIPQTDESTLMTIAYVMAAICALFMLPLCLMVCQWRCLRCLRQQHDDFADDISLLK

## S=c1oc(-c2ccccc2)nn1CN1CCN(Cc2ccccc2)CC1 [SD-6, 3-((4-Benzylpiperazin-1-yl)methyl)-5-phenyl-1,3,4-oxadiazole-2(3H)-thione]
[1]
  ACh brain level: dose-dependent increase
[2]; [I] = 10 μM
  PAS-AChE propidium iodide displacement (%): 27.3% and 27.316 ± 1.208%
[2]; [I] = 50 μM
  PAS-AChE propidium iodide displacement (%): 56.2% and 56.238 ± 1.338%
[3]
  % Aβ aggregation inhibition, hAChE-induced: 41–81%
[4]
  neurotoxicity (MTT, cell population and morphology): non-neurotoxic
[5]
  viability at 5 µM: 61.4%
  viability at 10 µM: 74%
  viability at 20 µM: 83.6%
[6]
  MDA level: declines in MDA
[7]; IC50 ± SEM hAChE, n = 3
  IC50: 907 ± 11 nM
[7]; hAChE inhibitory activity (good/moderate/poor), class in words
  IC50: < 1000 nM
[8]
  IC50: 1580 ± 37 nM
[9]
  catalase activity: elevation of both the biomarkers
[10]
  Pe(exp) PAMPA–BBB: 5.643 10^–6 cm/s
[11]
  % spontaneous alterations: significant increase in % spontaneous alterations in a dose-dependent manner
[12]
  AChE level (hippocampal): dose-dependent decrease
[13]
  % Aβ aggregation inhibition, self-induced: 22–69%
[14]
  neuronal morphology (dentate gyrus): less disordered neuronal arrangement and vacuolar fibrosis
[14]; vs Aβ1–42-treated group
  neuronal density (dentate gyrus): higher
[15]
  IC50: 753 ± 18 nM
[16]
  GSH level: elevation of both the biomarkers
[17]
  Papp: 5.643 ± 0.021 ×10⁻⁶ cm/s
[18]; 100–500 mg/kg, p.o., regained in 10–12 days
  weight loss (initial, in some animals): 12–25%
[18]; after 14 days
  organ histopathology (kidney, liver, lungs, heart; H&E): normal tissue appearance
[18]; blood samples after acute toxicity study
  hepatic and renal function tests: within the range
[19]
  SOD level: elevation of SOD levels
[20]
  type of inhibition (Lineweaver–Burk plot): mixed-type noncompetitive
[21]
  escape latency time (ELT): significant change as compared to the Aβ group
  time spent in the platform zone: significantly (^bp < 0.001) higher
  total number of entries to the platform zone: significantly (^bp < 0.001) different from the Aβ-treated animal group
